Reference: patent publication US6610714B2, “Non-nucleoside reverse transcriptase inhibitors” (Medivir AB, priority 2001, dated 2003)

system: HIV-1IIIB (wild type); assay: XTT assay in MT-4 cells infected with wild type HIV-1IIIB; format: cell-based; conditions: Human immunodeficiency virus 1, MT4, read-out: ED50
Protocol: Compounds of the invention are assayed for HIV activity, for example using multiple determinations with XTT in MT-4 cells (Weislow et al, J Nat Cancer Inst 1989, vol 81 no 8, 577 et seq), preferably including determinations in the presence of 40-50% human serum to indicate the contribution of protein binding. In short the XTT assay uses human T cell line MT4 cells grown in RPMI 1640 medium supplemented with 10% fetal calf serum (or 40-50% human serum as appropriate), penicillin and streptomycin seeded into 96 well microplates (2·10^4 cells/well) infected with 10-20 TCID50 per well of HIV-1IIIB (wild type) or mutant virus, such as those bearing RT IIe 100, Cys 181 or Asn 103 mutations. Serially diluted test compounds are added to respective wells and the culture incubated at 37° C. in a CO2 enriched atmosphere and the viability of cells is determined at day five or six with XTT vital dye. Results are typically presented as ED50 μM.

Point of comparison: N#Cc1ccc(NC(=O)N[C@@H]2[C@@H]3Cc4cc(Br)ccc4[C@@H]32)nc1 (racemic) [Example 17, (±)-cis-1-(5-cyano-2-pyridinyl)-3-(4-bromo-1,1a,6,6a-tetrahydro-cyclopropa[a]inden-1-yl)-urea], EC50 0.042 µM. Against it:
- COc1ccc2c(c1)[C@H]1[C@@H](CC2)[C@H]1NC(=O)Nc1ccc(C#N)cn1 [Example 6, +/−cis-N-(5-cyano-2-pyridinyl)-N-(6-methoxy-1a,2,3,7b-tetrahydro-1H cyclopropa[a]naphthalen-1-yl)urea] — within 1.5-fold, 0.036 µM
- C#Cc1ccc2c(c1)CC[C@H]1[C@@H](NC(=O)Nc3ccc(Br)cn3)[C@@H]21 [Example 9, +/−cis-N-(5-bromo-2-pyridinyl)-N-(5-ethynyl-1a,2,3,7b-tetrahydro-1H-cyclopropa[a]naphthalen-1-yl)urea] — within 1.5-fold, 0.044 µM
- C#Cc1ccc2c(c1)CC[C@H]1[C@@H](NC(=O)Nc3ccc(C#N)cn3)[C@@H]21 [Example 8, +/−cis-N-(5-cyano-2-pyridinyl)-N-(5-ethynyl-1a,2,3,7b-tetrahydro-1H-cyclopropa[a]naphthalen-1-yl)urea] — within 1.5-fold, 0.032 µM
- COc1ccc2c(c1)CC[C@H]1[C@@H](NC(=O)Nc3ccc(C#N)cn3)[C@@H]21 [Example 5, +/−cis-N-(5-cyano-2-pyridinyl)-N-(5-methoxy-1a,2,3,7b-tetrahydro-1H-cyclopropa[a]naphthalen-1-yl)urea] — 4.7-fold lower, 0.009 µM
- O=C(Nc1ccc(Cl)cn1)N[C@@H]1[C@@H]2Cc3c(F)ccc(F)c3[C@@H]21 (racemic) [Example 19, (±)-cis-1-(5-chloro-2-pyridinyl)-3-(2,5-difluoro-1,1a,6,6a-tetrahydro-cyclopropa[a]inden-1-yl)-urea] — 4.2-fold lower, 0.01 µM
- N#Cc1ccc(NC(=O)N[C@@H]2[C@@H]3Cc4c(F)ccc(F)c4[C@@H]32)nc1 (racemic) [Example 20, (±)-cis-1-(5-cyano-2-pyridinyl)-3-(2,5-difluoro-1,1a,6,6a-tetrahydro-cyclopropa[a]inden-1-yl)-urea] — 3-fold lower, 0.014 µM
